Experimental data taken from patent US20250230140A1 (Viva Star Biosciences (Suzhou) Co., Ltd., priority 2021, published 2025).
pIC50: −log10 of the molar value.

Biological target: T1, LPA1 (Homo sapiens, UniProt Q92633)
T1 construct: ProLink (β-galactosidase enzyme-donor fragment); host or cells: CHO-K1 (PathHunter EDG2 β-Arrestin cell line)
Experiment: LPA1 calcium flux assay (LPA1 functional antagonist assay)
Assay type: cell-based
Details: PathHunter CHO-K1 EDG2 β-Arrestin cells, calcium indicator dye, stimulated with EC80 concentration of LPA, FLIPR
Experimental: The effectiveness of compounds of the present invention as LPA1 inhibitors can be determined in an LPA1 functional antagonist assay as follows.
PathHunter® CHO-K1 EDG2 β-Arrestin Cell Line (Eurofins DiscoverX Corporation, Cat #93-0644C2) were plated overnight (11,500 cells/well) in poly-D-lysine coated 384-well microplates (Corning, Cat #356697) in AssayComplete™ Cell Plating 35 Reagent (Eurofins DiscoverX Corporation, Cat #93-0563R35). Following overnight culture, cells were loaded with calcium indicator dye from the HitHunter Calcium No WashPLUS Assay kit (Eurofins DiscoverX Corporation, Cat #93-0091) for 45 minutes at 37° C. Test compounds solubilized in DMSO (Sigma, Cat #276855) on 384-well polypropylene microplates (Greiner bio-one, Cat #781280) were then diluted to intermediate concentration with assay buffer [1×HBSS calcium/magnesium (Corning, Cat #21-023-CM) and 20 mM HEPES (Corning, Cat #25-060-Cl)] before addition to cells by Agilent Velocity 11 with a final concentration of 0.4% DMSO. After compound addition, assay plates were equilibrated to room temperature for 30 minutes. Cells were then stimulated by addition of EC80 concentration of LPA (Cat #, 10010093) in assay buffer containing [1×HBSS calcium/magnesium (Corning, Cat #21-023-CM), 20 mM HEPES (Corning, Cat #25-060-Cl), and 0.1% BSA (Sigma, Cat #A8806)] using Molecular Devices FLIPR Tetra PLUS®. IC50 values were determined by Chemical and Biological Information System from ChemInnovation Software, Inc.
The compounds of this invention were tested for their activity to inhibit LPA1 as determined in an LPA1 functional antagonist assay as described herein.

T1 sequence (Q92633 whole entry, the tested form may be a part): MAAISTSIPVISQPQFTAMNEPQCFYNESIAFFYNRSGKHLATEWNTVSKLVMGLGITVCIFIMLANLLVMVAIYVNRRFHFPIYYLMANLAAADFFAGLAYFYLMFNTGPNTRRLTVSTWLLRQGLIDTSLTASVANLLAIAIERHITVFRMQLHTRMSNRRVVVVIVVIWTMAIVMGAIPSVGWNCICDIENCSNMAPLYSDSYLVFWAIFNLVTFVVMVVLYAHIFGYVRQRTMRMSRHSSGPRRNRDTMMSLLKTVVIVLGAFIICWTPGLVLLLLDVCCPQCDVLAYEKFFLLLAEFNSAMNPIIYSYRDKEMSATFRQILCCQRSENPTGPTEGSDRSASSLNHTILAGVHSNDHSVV

SMILES | pIC50
CCc1nc(-c2nnn(C)c2COc2nccc(C3CCC3)n2)ccc1N1CC[C@@H]([C@H](C)C(=O)O)C1 [Example 10] | > 7.00
CCc1nc(-c2nnn(C)c2COc2nccc(C3CCC3)n2)ccc1N1CC[C@H]([C@H](C)C(=O)O)C1 [Example 11] | > 7.00
CCCc1ccc(=O)n(Cc2c(-c3ccc(N4CC[C@@H]([C@@H](C)C(=O)O)C4)c(CC)n3)nnn2C)c1 [Example 12, (R)-2-((S)-1-(2-ethyl-6-(1-methyl-5-((2-oxo-5-propylpyridin-1(2H)-yl)methyl)-1H-1,2,3-triazol-4-yl)pyridin-3-yl)pyrrolidin-3-yl)propanoic acid] | 5.30 to 6.30
CCCc1ccc(=O)n(Cc2c(-c3ccc(N4CC[C@@H]([C@H](C)C(=O)O)C4)c(CC)n3)nnn2C)c1 [Example 13, (S)-2-((S)-1-(2-ethyl-6-(1-methyl-5-((2-oxo-5-propylpyridin-1(2H)-yl)methyl)-1H-1,2,3-triazol-4-yl)pyridin-3-yl)pyrrolidin-3-yl)propanoic acid] | 6.30 to 7.00
CCCc1ccc(=O)n(Cc2c(-c3ccc(N4CC[C@@H](C(C)(C)C(=O)O)C4)c(CC)n3)nnn2C)c1 [Example 14] | > 7.00
CCCc1ccc(=O)n(Cc2c(-c3ccc(N4CC[C@@H](C(C)(C)C(=O)O)C4)c(C)n3)nnn2C)c1 [Example 15, (S)-2-methyl-2-(1-(2-methyl-6-(1-methyl-5-((2-oxo-5-propylpyridin-1(2H)-yl)methyl)-1H-1,2,3-triazol-4-yl)pyridin-3-yl)pyrrolidin-3-yl)propanoic acid] | > 7.00
CCCc1ccc(=O)n(Cc2c(-c3ccc(N4CC[C@H](C(C)(C)C(=O)O)C4)c(CC)n3)nnn2C)c1 [Example 16, (R)-2-(1-(2-ethyl-6-(1-methyl-5-((2-oxo-5-propylpyridin-1(2H)-yl)methyl)-1H-1,2,3-triazol-4-yl)pyridin-3-yl)pyrrolidin-3-yl)-2-methylpropanoic acid] | 5.30 to 6.30
Cc1nc(-c2nnn(C)c2COc2nccc(C3CCC3)n2)ccc1C1CC(CC(=O)O)CCO1 (centres unmarked) [Example 26, 2-(2-(6-(5-(((4-cyclobutylpyrimidin-2-yl)oxy)methyl)-1-methyl-11H-1,2,3-triazol-4-yl)-2-methylpyridin-3-yl)tetrahydro-2H-pyran-4-yl)acetic acid] | 6.30 to 7.00
CCCc1ccc(=O)n(Cc2c(-c3ccc(C4CC(CC(=O)O)CCO4)c(C)n3)nnn2C)c1 (centres unmarked) [Example 27, 2-[2-(2-methyl-6-{1-methyl-5-[(2-oxo-5-propyl-1,2-dihydropyridin-1-yl)methyl]-1H-1,2,3-triazol-4-yl}pyridin-3-yl)oxan-4-yl]acetic acid] | 5.30 to 6.30
Cc1nc(-c2nnn(C)c2COc2nccc(C3CCC3)n2)ccc1C1COCC(CC(=O)O)C1 (centres unmarked) [Example 28, 2-{5-[6-(5-{[(4-cyclobutylpyrimidin-2-yl)oxy]methyl}-1-methyl-1H-1,2,3-triazol-4-yl)-2-methylpyridin-3-yl]oxan-3-yl}acetic acid] | 6.30 to 7.00
CCCc1ccc(=O)n(Cc2c(-c3ccc(C4COCC(CC(=O)O)C4)c(C)n3)nnn2C)c1 (centres unmarked) [Example 29] | 5.30 to 6.30
CCCN(C)C(=O)OCc1c(-c2ccc(C3CCOC(CC(=O)O)C3)c(CC)n2)nnn1C (centres unmarked) [Example 30, 2-(4-{2-ethyl-6-[1-methyl-5-({[methyl(propyl)carbamoyl]oxy}methyl)-1H-1,2,3-triazol-4-yl]pyridin-3-yl}oxan-2-yl)acetic acid] | 5.30 to 6.30
CCCc1ccc(=O)n(Cc2c(-c3ccc(C4CCOC(CC(=O)O)C4)c(CC)n3)nnn2C)c1 (centres unmarked) [Example 31, 2-(4-(2-ethyl-6-(1-methyl-5-((2-oxo-5-propylpyridin-1(2H)-yl)methyl)-1H-1,2,3-triazol-4-yl)pyridin-3-yl)tetrahydro-2H-pyran-2-yl)acetic acid] | 5.30 to 6.30
CCc1nc(-c2nnn(C)c2COc2nccc(C3CCC3)n2)ccc1C1CCOC(CC(=O)O)C1 (centres unmarked) [Example 32, 2-(4-(6-(5-(((4-cyclobutylpyrimidin-2-yl)oxy)methyl)-1-methyl-1H-1,2,3-triazol-4-yl)-2-ethylpyridin-3-yl)tetrahydro-2H-pyran-2-yl)acetic acid] | > 7.00
CCc1nc(-c2nnn(C)c2COc2cc(-n3cccn3)ncn2)ccc1C1CCOC(CC(=O)O)C1 (centres unmarked) [Example 33, 2-(4-(6-(5-(((6-(1H-pyrazol-1-yl)pyrimidin-4-yl)oxy)methyl)-1-methyl-1H-1,2,3-triazol-4-yl)-2-ethylpyridin-3-yl)tetrahydro-2H-pyran-2-yl)acetic acid] | 6.30 to 7.00
CCCc1ccc(=O)n(Cc2c(-c3ccc(C4CCCC(CC(=O)O)C4)c(C)n3)nnn2C)c1 (centres unmarked) [Example 38, 2-[3-(2-methyl-6-{1-methyl-5-[(2-oxo-5-propyl-1,2-dihydropyridin-1-yl)methyl]-1H-1,2,3-triazol-4-yl}pyridin-3-yl)cyclohexyl]acetic acid] | 6.30 to 7.00
Cc1nc(-c2nnn(C)c2COc2nccc(C3CCC3)n2)ccc1C1CCCC(CC(=O)O)C1 (centres unmarked) [Example 39, 2-{3-[6-(5-{[(4-cyclobutylpyrimidin-2-yl)oxy]methyl}-1-methyl-1H-1,2,3-triazol-4-yl)-2-methylpyridin-3-yl]cyclohexyl}acetic acid] | > 7.00
Cc1nc(-c2nnn(C)c2CN2CC(CC3CC3)N(C)C2=O)ccc1O[C@H]1CCC[C@H](C(=O)O)C1 (stereo partly drawn) [Example 42, (1S,3S)-3-((6-(5-((4-(cyclopropylmethyl)-3-methyl-2-oxoimidazolidin-1-yl)methyl)-1-methyl-1H-1,2,3-triazol-4-yl)-2-methylpyridin-3-yl)oxy)cyclohexane-1-carboxylic acid] | 6.30 to 7.00
CCCc1ccc(=O)n(Cc2c(-c3ccc(O[C@H]4CCC[C@H](C(=O)O)C4)c(CC)n3)nnn2C)c1 [Example 43, (1S,3S)-3-((2-ethyl-6-(1-methyl-5-((2-oxo-5-propylpyridin-1(2H)-yl)methyl)-1H-1,2,3-triazol-4-yl)pyridin-3-yl)oxy)cyclohexanecarboxylic acid] | > 7.00
CCc1nc(-c2nnn(C)c2Cn2cc(CC3CC3)ccc2=O)ccc1O[C@H]1CCC[C@H](C(=O)O)C1 [Example 44, (1S,3S)-3-((6-(5-((5-(cyclopropylmethyl)-2-oxopyridin-1(2H)-yl)methyl)-1-methyl-1H-1,2,3-triazol-4-yl)-2-ethylpyridin-3-yl)oxy)cyclohexanecarboxylic acid] | > 7.00
